Tests used:
Neuraminidase = Neuraminidase (Influenza A virus, UniProt B4URF0); experiment: Inhibition of Influenza A H1N1 virus neuraminidase after 1 hr by spectrofluorimetry using 2-(4-meythylumbelliferyl)-alpha-D-acetylneuramic acid as substrate
[1] = molecular target: Neuraminidase (Influenza A virus) (UniProt B4URF0); experiment: Inhibition of Influenza A H1N1 virus neuraminidase at 1.6 uM after 1 hr by spectrofluorimetry using 2-(4-meythylumbelliferyl)-alpha-D-acetylneuramic acid as substrate
[2] = molecular target: Neuraminidase (Influenza A virus) (UniProt B4URF0); experiment: Inhibition of Influenza A H1N1 virus neuraminidase at 200 uM after 1 hr by spectrofluorimetry using 2-(4-meythylumbelliferyl)-alpha-D-acetylneuramic acid as substrate
[3] = Cytotoxicity against human L02 cells after 48 hrs by MTT assay; assay type: cell-based; details: L02, 48 h
[4] = molecular target: Neuraminidase (Influenza A virus) (UniProt B4URF0); experiment: Inhibition of Influenza A H1N1 virus neuraminidase at 40 uM after 1 hr by spectrofluorimetry using 2-(4-meythylumbelliferyl)-alpha-D-acetylneuramic acid as substrate
[5] = molecular target: Neuraminidase (Influenza A virus) (UniProt B4URF0); experiment: Inhibition of Influenza A H1N1 virus neuraminidase at 8 uM after 1 hr by spectrofluorimetry using 2-(4-meythylumbelliferyl)-alpha-D-acetylneuramic acid as substrate
[6] = molecular target: Neuraminidase (Influenza A virus) (UniProt B4URF0); experiment: Inhibition of Influenza A H1N1 virus neuraminidase at 100 nM after 1 hr by spectrofluorimetry using 2-(4-meythylumbelliferyl)-alpha-D-acetylneuramic acid as substrate
[7] = molecular target: Neuraminidase (Influenza A virus) (UniProt B4URF0); experiment: Inhibition of Influenza A H1N1 virus neuraminidase at 20 nM after 1 hr by spectrofluorimetry using 2-(4-meythylumbelliferyl)-alpha-D-acetylneuramic acid as substrate
[8] = molecular target: Neuraminidase (Influenza A virus) (UniProt B4URF0); experiment: Inhibition of Influenza A H1N1 virus neuraminidase at 0.8 nM after 1 hr by spectrofluorimetry using 2-(4-meythylumbelliferyl)-alpha-D-acetylneuramic acid as substrate
[9] = molecular target: Neuraminidase (Influenza A virus) (UniProt B4URF0); experiment: Inhibition of Influenza A H1N1 virus neuraminidase at 4 nM after 1 hr by spectrofluorimetry using 2-(4-meythylumbelliferyl)-alpha-D-acetylneuramic acid as substrate
[10] = molecular target: Neuraminidase (Influenza A virus) (UniProt B4URF0); experiment: Inhibition of Influenza A H1N1 virus neuraminidase at 0.16 nM after 1 hr by spectrofluorimetry using 2-(4-meythylumbelliferyl)-alpha-D-acetylneuramic acid as substrate

Sequence of Neuraminidase (B4URF0 whole entry): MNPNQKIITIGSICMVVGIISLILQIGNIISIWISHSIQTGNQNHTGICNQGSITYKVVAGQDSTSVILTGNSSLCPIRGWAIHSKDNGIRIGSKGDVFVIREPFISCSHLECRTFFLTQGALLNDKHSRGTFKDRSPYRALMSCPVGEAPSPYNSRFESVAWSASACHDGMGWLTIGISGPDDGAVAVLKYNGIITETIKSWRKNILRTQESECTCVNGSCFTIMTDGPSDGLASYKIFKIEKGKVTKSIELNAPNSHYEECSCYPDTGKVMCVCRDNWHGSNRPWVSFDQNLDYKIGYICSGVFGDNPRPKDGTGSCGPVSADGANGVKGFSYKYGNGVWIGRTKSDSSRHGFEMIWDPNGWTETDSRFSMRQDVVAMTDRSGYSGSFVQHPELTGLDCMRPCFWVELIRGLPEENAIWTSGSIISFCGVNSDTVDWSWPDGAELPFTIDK
Sequence of Neuraminidase (Influenza A virus) (B4URF0 as listed by the source): as the sequence (B4URF0 whole entry) above

| Compound | IC50 (Neuraminidase) | other results |
| --- | --- | --- |
| CCOC(=O)C1C(=O)NC(N)=NC1c1ccc(OC)cc1 (centres undefined) | > 200 µM |  |
| CCOC(=O)C1C(=O)NC(N)=NC1c1ccc(Br)cc1 (centres undefined) | 125 µM |  |
| CCOC(=O)C1C(=O)NC(N)=NC1c1ccc(OC)c(OC)c1 (centres undefined) | > 200 µM |  |
| CCOC(=O)C1C(=O)NC(N)=NC1c1ccc(N(C)C)cc1 (centres undefined) | > 200 µM |  |
| CCOC(=O)C1C(=O)NC(NC(C)=O)=NC1c1ccc(OC)c(OC)c1 (centres undefined) | > 200 µM |  |
| CCOC(=O)C1C(=O)NC(N)=NC1c1ccc(F)cc1 (centres undefined) | 145 µM |  |
| CCOC(=O)C1C(=O)NC(NC(C)=O)=NC1c1ccc(F)cc1 (centres undefined) | 96.5 µM |  |
| CCOC(=O)C1C(=O)NC(NC(C)=O)=NC1c1ccc(Cl)cc1Cl (centres undefined) | 28.5 µM | inhibition [1]: 8%; inhibition [2]: 94%; IC50 [3]: > 10000 µM; inhibition [4]: 61%; inhibition [5]: 38% |
| CCOC(=O)C1C(=O)NC(N)=NC1c1ccc(Br)cc1F (centres undefined) | 121 µM |  |
| CCOC(=O)C1C(=O)NC(N)=NC1c1ccc(Cl)cc1Cl (centres undefined) | 120 µM |  |
| CCOC(=O)C1C(=O)NC(N)=NC1c1ccccc1 (centres undefined) | 129 µM |  |
| CCOC(=O)C1C(=O)NC(N)=NC1c1ccccc1Cl (centres undefined) | 86.9 µM |  |
| CCOC(=O)C1C(=O)NC(NC(C)=O)=NC1c1ccc([N+](=O)[O-])cc1 (centres undefined) | 145 µM |  |
| CCOC(=O)C1C(=O)NC(N)=NC1c1ccc([N+](=O)[O-])cc1 (centres undefined) | 189 µM |  |
| CCOC(=O)C1C(=O)NC(NC(C)=O)=NC1C(C)C (centres undefined) | > 200 µM |  |
| CCOC(=O)C1C(=O)NC(NC(C)=O)=NC1c1ccco1 (centres undefined) | > 200 µM |  |
| CCOC(=O)C1C(=O)NC(NC(C)=O)=NC1c1ccccc1Cl (centres undefined) | 36.7 µM |  |
| CCOC(=O)C1C(=O)NC(N)=NC1c1ccccc1F (centres undefined) | 89 µM |  |

| Compound | IC50 (Neuraminidase) | other results |
| --- | --- | --- |
| CCOC(=O)C1C(=O)NC(NC(C)=O)=NC1c1ccc(C)cc1 (centres undefined) | 165 µM |  |
| CCOC(=O)C1C(=O)NC(NC(C)=O)=NC1c1ccc(N(C)C)cc1 (centres undefined) | 139 µM |  |
| CCOC(=O)C1C(=O)NC(N)=NC1c1ccccc1[N+](=O)[O-] (centres undefined) | 75.7 µM |  |
| CCOC(=O)C1C(=O)NC(NC(C)=O)=NC1c1ccc(Cl)cc1 (centres undefined) | 89.6 µM |  |
| CCOC(=O)C1C(=O)NC(NC(C)=O)=NC1c1ccccc1[N+](=O)[O-] (centres undefined) | 17.6 µM | inhibition [1]: 8%; inhibition [2]: 82%; IC50 [3]: > 10000 µM; inhibition [4]: 53%; inhibition [5]: 25% |
| CCOC(=O)C1C(=O)NC(N)=NC1c1ccco1 (centres undefined) | > 200 µM |  |
| CCOC(=O)C1C(=O)NC(NC(C)=O)=NC1c1ccc(Br)cc1 (centres undefined) | 71.3 µM |  |
| CCOC(=O)C1=C[C@@H](OC(CC)CC)[C@H](NC(C)=O)[C@@H](N)C1 |  | inhibition [6]: 99%; inhibition [7]: 97%; inhibition [8]: 51%; inhibition [9]: 84%; inhibition [10]: 17% |
| CCOC(=O)C1C(=O)NC(NC(C)=O)=NC1c1ccc(Br)cc1F (centres undefined) | 29.7 µM | inhibition [1]: 7%; inhibition [2]: 86%; IC50 [3]: > 10000 µM; inhibition [4]: 52%; inhibition [5]: 24% |
| CCOC(=O)C1C(=O)NC(N)=NC1C(C)C (centres undefined) | > 200 µM |  |
| CCOC(=O)C1C(=O)NC(NC(C)=O)=NC1c1ccccc1 (centres undefined) | 57.5 µM |  |
| CCOC(=O)C1C(=O)NC(N)=NC1c1ccc(C)cc1 (centres undefined) | > 200 µM |  |
| CCOC(=O)C1C(=O)NC(NC(C)=O)=NC1c1ccc(OC)cc1 (centres undefined) | 166 µM |  |
| CCOC(=O)C1C(=O)NC(N)=NC1c1ccc(Cl)cc1 (centres undefined) | 110 µM |  |
| CCOC(=O)C1C(=O)NC(NC(=O)CC)=NC1c1ccc(Br)cc1 (centres undefined) | 106 µM |  |
| CCOC(=O)C1C(=O)NC(NC(=O)C(F)(F)F)=NC1c1ccc(Br)cc1 (centres undefined) | 69.8 µM |  |
| CCOC(=O)C1C(=O)NC(NC(C)=O)=NC1c1ccccc1F (centres undefined) | 46.5 µM |  |
